Experimental data as given in paper PMC7179119, “A New Positron Emission Tomography Probe for Orexin Receptors Neuroimaging” (Molecules, 2020).
Like-named read-outs stand apart in the source and are kept apart here.

How the values were obtained:
Test in all cases: PDSP off-target radioligand binding assay
Sigma 1 = conditions: 10 µM
Protocol: (§1) Table S1. Off binding data of CW24.
(§2) The off-target binding assays were performed at PDSP with their standard protocol (https://pdspdb.unc.edu/pdspWeb/content/UNC-CH%20Protocol%20Book.pdf). In radioligand binding assays, CW24 was tested at a single concentration (10 µM) and in quadruplicate in 96-well plates. The binding assays were carried out in a final of volume of 125 µl per well in appropriate binding buffers. The hot ligand concentration is usually at a concentration close to the Kd (unless otherwise indicated). Total binding and nonspecific binding are determined in the absence and presence of 10 µM of the appropriate reference compound, respectively. In brief, plates are usually incubated at room temperature and in the dark for 90 mins. Reactions are stopped by vacuum filtration onto 0.3% polyethyleneimine (PEI) soaked 96-well filter mats using a 96-well Filtermate harvester, followed by three washes with cold wash buffers (for details, see Tables 2 to 24). Scintillation cocktail is then melted onto the microwave-dried filters on a hot plate and radioactivity is counted in a Microbeta counter.
(§3) Receptor % Inhibition 1 % Inhibition 2 % Inhibition 3 % Inhibition 4 Mean±SD %

D5 = D5 (Homo sapiens, UniProt P21918)
Protocol: as §1, §2, §3

MOR = MOR (Homo sapiens, UniProt P35372)
Protocol: as §1, §2, §3

5-HT1B = biological target: T1, 5-HT1B (Homo sapiens, UniProt P28222)
T1 construct: NIMH PDSP
Protocol: as §1, §2, §3

M4 = biological target: T2, M4 (Homo sapiens, UniProt P08173)
T2 sequence (P08173 1-479): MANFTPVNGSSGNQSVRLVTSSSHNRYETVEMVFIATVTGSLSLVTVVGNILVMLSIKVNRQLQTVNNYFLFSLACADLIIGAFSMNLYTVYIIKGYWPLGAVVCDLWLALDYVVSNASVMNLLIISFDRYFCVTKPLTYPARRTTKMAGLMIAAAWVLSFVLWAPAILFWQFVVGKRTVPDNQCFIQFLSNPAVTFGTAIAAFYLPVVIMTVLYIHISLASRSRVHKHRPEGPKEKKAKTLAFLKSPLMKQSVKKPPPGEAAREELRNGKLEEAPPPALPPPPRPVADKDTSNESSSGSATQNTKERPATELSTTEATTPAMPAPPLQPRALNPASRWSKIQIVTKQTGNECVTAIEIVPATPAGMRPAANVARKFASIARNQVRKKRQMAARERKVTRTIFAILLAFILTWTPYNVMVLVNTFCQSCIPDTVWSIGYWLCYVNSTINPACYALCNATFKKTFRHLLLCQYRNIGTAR
Protocol: as §1, §2, §3

5-HT2C = biological target: T3, 5-HT2C (Homo sapiens, UniProt P28335)
T3 construct: NIMH PDSP
T3 sequence (P28335 33-458): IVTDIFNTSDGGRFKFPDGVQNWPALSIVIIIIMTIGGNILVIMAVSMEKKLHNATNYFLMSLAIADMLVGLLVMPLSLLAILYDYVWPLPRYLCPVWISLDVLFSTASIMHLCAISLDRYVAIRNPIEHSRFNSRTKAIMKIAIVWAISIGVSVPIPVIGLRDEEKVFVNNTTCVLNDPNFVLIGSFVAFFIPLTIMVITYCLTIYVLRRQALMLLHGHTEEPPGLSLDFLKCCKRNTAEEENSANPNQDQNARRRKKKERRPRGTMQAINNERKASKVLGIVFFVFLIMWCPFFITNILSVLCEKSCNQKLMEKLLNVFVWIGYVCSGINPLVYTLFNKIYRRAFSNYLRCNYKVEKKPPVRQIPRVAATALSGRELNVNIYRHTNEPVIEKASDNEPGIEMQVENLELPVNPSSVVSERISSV
Protocol: as §1, §2, §3

Alpha2C = biological target: T4, Alpha2C (Homo sapiens, UniProt P18825)
T4 construct: NIMH PDSP
T4 sequence (P18825 1-462): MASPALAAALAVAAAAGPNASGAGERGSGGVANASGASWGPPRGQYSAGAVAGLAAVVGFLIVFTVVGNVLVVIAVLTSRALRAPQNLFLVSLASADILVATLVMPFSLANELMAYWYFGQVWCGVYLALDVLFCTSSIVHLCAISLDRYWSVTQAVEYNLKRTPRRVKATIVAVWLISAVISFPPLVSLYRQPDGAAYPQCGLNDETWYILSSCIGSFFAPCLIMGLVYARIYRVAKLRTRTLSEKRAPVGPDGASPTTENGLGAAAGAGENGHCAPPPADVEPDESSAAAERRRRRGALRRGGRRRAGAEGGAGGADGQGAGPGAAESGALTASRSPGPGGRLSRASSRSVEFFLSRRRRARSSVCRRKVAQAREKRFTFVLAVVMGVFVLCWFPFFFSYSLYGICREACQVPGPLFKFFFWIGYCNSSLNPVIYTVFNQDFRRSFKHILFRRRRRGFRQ
Protocol: as §1, §2, §3

[1] = quadruplicate, read-out: Mean±SD % inhibition
[2] = replicate 1, read-out: % Inhibition 1
[3] = replicate 2, read-out: % Inhibition 2
[4] = replicate 3, read-out: % Inhibition 3
[5] = replicate 4, read-out: % Inhibition 4

MOR, sequence (P35372 whole entry): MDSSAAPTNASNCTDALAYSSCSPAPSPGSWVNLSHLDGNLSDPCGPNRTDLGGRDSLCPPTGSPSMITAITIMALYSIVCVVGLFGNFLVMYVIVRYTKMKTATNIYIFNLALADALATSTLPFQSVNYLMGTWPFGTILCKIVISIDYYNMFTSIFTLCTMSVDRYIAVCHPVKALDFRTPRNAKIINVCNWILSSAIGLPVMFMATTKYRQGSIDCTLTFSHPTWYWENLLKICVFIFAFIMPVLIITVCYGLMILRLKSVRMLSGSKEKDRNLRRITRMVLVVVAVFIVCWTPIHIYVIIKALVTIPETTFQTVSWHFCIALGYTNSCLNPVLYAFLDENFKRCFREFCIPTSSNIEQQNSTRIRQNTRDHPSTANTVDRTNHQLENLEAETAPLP
D5, sequence (P21918 whole entry): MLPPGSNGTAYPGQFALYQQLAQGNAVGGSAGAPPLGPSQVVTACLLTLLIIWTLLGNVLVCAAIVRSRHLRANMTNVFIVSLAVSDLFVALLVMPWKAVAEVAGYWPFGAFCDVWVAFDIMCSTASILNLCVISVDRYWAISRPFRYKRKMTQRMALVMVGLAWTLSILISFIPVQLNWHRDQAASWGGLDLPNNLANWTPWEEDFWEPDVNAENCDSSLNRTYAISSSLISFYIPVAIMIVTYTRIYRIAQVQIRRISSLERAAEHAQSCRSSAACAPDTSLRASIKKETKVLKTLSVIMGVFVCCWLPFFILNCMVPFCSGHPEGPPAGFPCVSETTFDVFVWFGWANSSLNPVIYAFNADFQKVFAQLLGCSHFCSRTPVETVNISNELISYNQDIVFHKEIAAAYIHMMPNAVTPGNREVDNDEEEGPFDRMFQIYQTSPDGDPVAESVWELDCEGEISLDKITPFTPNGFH
T1 sequence (P28222 whole entry, species assumed): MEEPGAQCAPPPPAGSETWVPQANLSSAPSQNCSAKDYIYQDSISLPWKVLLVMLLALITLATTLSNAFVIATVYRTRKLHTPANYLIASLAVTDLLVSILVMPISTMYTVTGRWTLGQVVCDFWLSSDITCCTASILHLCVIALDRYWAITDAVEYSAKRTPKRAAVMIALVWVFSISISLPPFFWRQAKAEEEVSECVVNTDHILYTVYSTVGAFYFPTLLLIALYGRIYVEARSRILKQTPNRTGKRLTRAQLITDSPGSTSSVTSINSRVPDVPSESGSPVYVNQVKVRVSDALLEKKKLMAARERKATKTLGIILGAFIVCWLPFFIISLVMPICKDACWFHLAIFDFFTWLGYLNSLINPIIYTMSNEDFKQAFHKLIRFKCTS

## COc1ccnc(N2CCC3(CCCN(Cc4cn(C)c5ccccc45)C3=O)CC2)n1 [CW24]
Sigma 1; quadruplicate
  Mean±SD % inhibition: 12.33 ± 12.50%
Sigma 1; replicate 1
  % Inhibition 1: 8.39%
Sigma 1; replicate 2
  % Inhibition 2: 1.56%
Sigma 1; replicate 3
  % Inhibition 3: 8.99%
Sigma 1; replicate 4
  % Inhibition 4: 30.38%
D5; [1]
  inhibition at 10 µM: 15.5 ± 27.3%
D5; [2]
  inhibition at 10 µM: 4.57%
D5; [3]
  inhibition at 10 µM: -5.32%
D5; [4]
  inhibition at 10 µM: 7.05%
D5; [5]
  inhibition at 10 µM: 55.8%
MOR; [1]
  inhibition at 10 µM: -2.04 ± 10.4%
MOR; [2]
  inhibition at 10 µM: 5.06%
MOR; [3]
  inhibition at 10 µM: -11.3%
MOR; [4]
  inhibition at 10 µM: 8.74%
MOR; [5]
  inhibition at 10 µM: -10.6%
5-HT1B; [1]
  inhibition at 10 µM: 13.4 ± 6.1%
5-HT1B; [2]
  inhibition at 10 µM: 19%
5-HT1B; [3]
  inhibition at 10 µM: 18%
5-HT1B; [4]
  inhibition at 10 µM: 6.23%
5-HT1B; [5]
  inhibition at 10 µM: 10.4%
M4; [1]
  inhibition at 10 µM: -3.86 ± 14.8%
M4; [2]
  inhibition at 10 µM: 0.88%
M4; [3]
  inhibition at 10 µM: -23.9%
M4; [4]
  inhibition at 10 µM: -3.92%
M4; [5]
  inhibition at 10 µM: 11.5%
5-HT2C; [1]
  inhibition at 10 µM: 14.3 ± 40.6%
5-HT2C; [2]
  inhibition at 10 µM: 28.8%
5-HT2C; [3]
  inhibition at 10 µM: -38.5%
5-HT2C; [4]
  inhibition at 10 µM: 8.5%
5-HT2C; [5]
  inhibition at 10 µM: 58.2%
Alpha2C; [1]
  inhibition at 10 µM: 11.1 ± 20.6%
Alpha2C; [2]
  inhibition at 10 µM: 38.6%
Alpha2C; [3]
  inhibition at 10 µM: 2.3%
Alpha2C; [4]
  inhibition at 10 µM: -9.91%
Alpha2C; [5]
  inhibition at 10 µM: 13.3%
